Experiments:
Assay in all cases: relative viability (nuclei count vs DMSO), 5 days (fraction); higher = more cells survive
[1] = compound: C=CC(=O)Nc1cc(-n2c(=O)ccc3cnc4ccc(-c5ccc(NS(C)(=O)=O)cc5)cc4c32)ccc1C [BMX-IN-1] + CC1(C)CCC(c2ccc(Cl)cc2)=C(CN2CCN(c3ccc(C(=O)NS(=O)(=O)c4ccc(N[C@H](CCN5CCOCC5)CSc5ccccc5)c(S(=O)(=O)C(F)(F)F)c4)cc3)CC2)C1 [Navitoclax] (partner 0.5 µM)
Procedure, shortened: (§1)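 Five library-drug doses in √10 steps were combined with a fixed anchor-drug dose, or a single drug was given alone, by pin tool to lung cancer cell lines in 1536-well plates the day after seeding. Nuclei were stained and counted after 5 days. Relative viability is the nuclei count in treated wells over that in vehicle wells, taken as the median of duplicate plates.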

[2] = compound: C=CC(=O)Nc1cc(-n2c(=O)ccc3cnc4ccc(-c5ccc(NS(C)(=O)=O)cc5)cc4c32)ccc1C [BMX-IN-1] + CC(=O)c1c(C)c2cnc(Nc3ccc(N4CCNCC4)cn3)nc2n(C2CCCC2)c1=O [Palbociclib] (partner 0.5 µM)
Procedure, shortened: as §1

[3] = compound: C=CC(=O)Nc1cc(-n2c(=O)ccc3cnc4ccc(-c5ccc(NS(C)(=O)=O)cc5)cc4c32)ccc1C [BMX-IN-1] + N=C(N)NC(=N)NCCc1ccccc1 [Phenformin] (partner 250 µM)
Procedure, shortened: as §1

[4] = compound: C=CC(=O)Nc1cc(-n2c(=O)ccc3cnc4ccc(-c5ccc(NS(C)(=O)=O)cc5)cc4c32)ccc1C [BMX-IN-1] + CC(=O)Nc1cccc(-n2c(=O)n(C3CC3)c(=O)c3c(Nc4ccc(I)cc4F)n(C)c(=O)c(C)c32)c1 [Trametinib] (partner 0.02 µM)
Procedure, shortened: as §1

[5] = compound: C=CC(=O)Nc1cc(-n2c(=O)ccc3cnc4ccc(-c5ccc(NS(C)(=O)=O)cc5)cc4c32)ccc1C [BMX-IN-1] + Cc1nc(Nc2ncc(C(=O)Nc3c(C)cccc3Cl)s2)cc(N2CCN(CCO)CC2)n1 [Dasatinib] (partner 0.075 µM)
Procedure, shortened: as §1

SK-MES-1
relative viability ([1]; first compound 0.02 µM): 1.45
relative viability ([1]; first compound 0.2 µM): 1.45
relative viability ([1]; first compound 0.6325 µM): 1.23
relative viability ([1]; first compound 2 µM): 1.1
relative viability ([2]; first compound 0.02 µM): 0.303
relative viability ([2]; first compound 0.2 µM): 0.333
relative viability ([2]; first compound 0.6325 µM): 0.355
relative viability ([2]; first compound 2 µM): 0.271
relative viability ([3]; first compound 0.02 µM): 0.711
relative viability ([3]; first compound 0.2 µM): 0.792
relative viability ([3]; first compound 0.6325 µM): 0.695
relative viability ([3]; first compound 2 µM): 0.724
relative viability ([4]; first compound 0.02 µM): 0.603
relative viability ([4]; first compound 0.2 µM): 0.542
relative viability ([4]; first compound 0.6325 µM): 0.561
relative viability ([4]; first compound 2 µM): 0.537
relative viability ([5]; first compound 0.02 µM): 0.43
relative viability ([5]; first compound 0.2 µM): 0.317
relative viability ([5]; first compound 0.6325 µM): 0.337
relative viability ([5]; first compound 2 µM): 0.34

Source: the supplement of paper PMC10307832
